In patent US10851073B2, “Protein tyrosine phosphatase inhibitors and methods of use thereof” (Calico Life Sciences LLC, priority 2019, dated 2020):

Assays:
[1] = system: Pan T cells isolated from C57BL6 splenocytes; assay: T cell function assays (IFNγ and TNFα in supernatants); assay type: cell-based, mouse; conditions: 0.3 μM compound, 3 days; for IFNγ [pg/mL] anti-CD3/CD28 / TNFα [pg/mL] anti-CD3/CD28: anti-CD3/CD28 stimulation
Protocol: Example 231: T Cell Function Assays Pan T cells were isolated from C57BL6 splenocytes using a MACS Pan T cell isolation kit II (Miltenyi Biotec, Auburn, Calif.) according to the manufacturer's instructions. Isolated T cells (200,000 cells/well in a 96 well flat-bottom plate) were cultured in RPMI 1640 supplemented with 10% FBS, […] 2-mercaptoethanol, 100 U/mL penicillin, and 100 μg/mL streptomycin, and incubated with 0.3 μM compound or DMSO in duplicates. After 1 hour, mouse T cell activator CD3/CD28 Dynabeads (ThermoFisher Scientific, Waltham, Mass.) were added at a 1:5 beads to cells ratio to stimulate the T cells for 3 days. T cells with or without compound were incubated in the absence of T cell activator beads to evaluate if compounds nonspecifically stimulate the T cells. After 3 days of stimulation, supernatants were collected and IFNγ and TNFα in supernatants were assessed using an MSD V-plex assay (Meso Scale Discovery, Rockville, Md.).

[2] = system: B16F10 mouse melanoma cells; assay: B16F10 IFNγ-induced cellular growth inhibition assay; assay type: cell-based; conditions: B16-F10, with 0.5 ng/mL IFNγ, read-out: B16F10 GI IC50
Procedure, shortened: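 B16F10 cells grown in DMEM+10% FBS, with or without 0.5 ng/mL final mouse IFNγ, and dosed in triplicate at 100 μM to 0.001 μM final (0.1% DMSO). Confluence imaged every 6 h for 5 days; percent growth inhibition versus DMSO/with-IFNγ control taken once DMSO/no-IFNγ wells exceeded 95% confluence, giving IC50.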

[3] = molecular target: T1, His tagged PTPN2 (TC45) protein (Homo sapiens, UniProt P17706); assay: Mobility shift assay used to determine potency of PTPN2 inhibitors; assay type: biochemical; conditions: enzyme 0.5 nM, substrate 2 μM; read-out: PTPN2 MSA IC50
T1 construct: made in house
T1 sequence (P17706 with tags, fused parts or gaps isoform P17706-2): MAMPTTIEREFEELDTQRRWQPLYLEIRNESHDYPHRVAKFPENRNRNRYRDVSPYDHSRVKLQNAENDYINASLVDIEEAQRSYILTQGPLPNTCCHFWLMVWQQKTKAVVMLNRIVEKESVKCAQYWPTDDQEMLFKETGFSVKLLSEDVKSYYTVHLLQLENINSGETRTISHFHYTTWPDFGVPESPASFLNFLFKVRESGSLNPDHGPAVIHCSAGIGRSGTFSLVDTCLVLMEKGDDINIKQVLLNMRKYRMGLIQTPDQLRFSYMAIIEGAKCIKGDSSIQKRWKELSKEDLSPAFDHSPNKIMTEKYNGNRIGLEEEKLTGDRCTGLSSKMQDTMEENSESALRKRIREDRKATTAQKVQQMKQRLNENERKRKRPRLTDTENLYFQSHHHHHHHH
Procedure, shortened: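 Enzyme (0.5 nM) preincubated with compound (12-point, 1:3 dilution) 10 min at room temperature in 50 mM HEPES pH 7.5, 1 mM EGTA, 10 mM EDTA, 0.01% Tween 20, 2 mM DTT; OG488-labelled phospho-insulin-receptor peptide substrate (2 μM) added for 10 min, then quenched. Microfluidic mobility shift (ex 488/em 530 nm) gave % conversion; IC50 from % inhibition.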

[4] = molecular target: T2, His tagged full-length PTPN1 protein (Homo sapiens, UniProt P18031); assay: Mobility shift assay (MSA) used to determine potency of PTPN1 inhibitors; assay type: biochemical; conditions: enzyme 0.5 nM, substrate 2 μM
T2 construct: made in house
T2 sequence (P18031 with tags, fused parts or gaps): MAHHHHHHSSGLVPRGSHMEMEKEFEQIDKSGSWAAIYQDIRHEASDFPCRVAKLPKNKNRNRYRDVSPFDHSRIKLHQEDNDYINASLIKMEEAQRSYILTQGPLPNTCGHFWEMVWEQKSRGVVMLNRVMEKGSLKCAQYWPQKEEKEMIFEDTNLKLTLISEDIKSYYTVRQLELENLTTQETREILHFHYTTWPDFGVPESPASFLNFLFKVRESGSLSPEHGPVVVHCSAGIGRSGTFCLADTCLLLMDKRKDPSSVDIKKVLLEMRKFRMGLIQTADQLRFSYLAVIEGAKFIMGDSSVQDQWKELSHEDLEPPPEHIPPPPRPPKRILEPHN
Procedure, shortened: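 Full-length His-tagged human PTPN1 (0.5 nM) was preincubated 10 min at room temperature with compound (12-point, 1:3 dilution) in HEPES pH 7.5 buffer with EGTA, EDTA, Tween 20 and DTT. A 2 μM fluorescent phospho-insulin receptor peptide was then added for 10 min before quench. Mobility-shift % conversion gave % inhibition and IC50.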

Compound	IC50 [2]	IC50 [4]	IFNγ [pg/mL] anti-CD3/CD28 [1]	TNFα [pg/mL] anti-CD3/CD28 [1]	IFNγ [pg/mL] no stimulation [1]	TNFα [pg/mL] no stimulation [1]	IC50 [3]
CCC(CC)CCN[C@@H]1CCc2cc(O)c(N3CC(=O)NS3(=O)=O)c(F)c2C1 [Compound 204, 5-{(7R)-7-[(3-ethylpentyl)amino]-1-fluoro-3-hydroxy-5,6,7,8-tetrahydronaphthalen-2-yl}-1λ^6,2,5-thiadiazolidine-1,1,3-trione]	–	–	148.8 pg/mL	105.4 pg/mL	1.8 pg/mL	1.1 pg/mL	–
O=C1CN(c2c(O)cc3c(c2F)C[C@H](NCCC2(C(F)(F)F)CC2)CC3)S(=O)(=O)N1 (single isomer, unassigned) [Compound 148]	< 1000 nM	< 1 nM	168.4 pg/mL	123.4 pg/mL	1.0 pg/mL	0.8 pg/mL	< 1 nM
O=C1CN(c2c(O)cc3c(c2F)C[C@@H]([C@H]2CCN(S(=O)(=O)C4CC4)C2)CC3)S(=O)(=O)N1 (single isomer, unassigned) [Compound 139, 5-{(7RS)-7-[(3SR)-1-(cyclopropanesulfonyl)pyrrolidin-3-yl]-1-fluoro-3-hydroxy-5,6,7,8-tetrahydronaphthalen-2-yl}-1λ^6,2,5-thiadiazolidine-1,1,3-trione]	10000 to 100000 nM	10 to 100 nM	–	–	–	–	1 to 10 nM
CCCCNC1CCc2cc(O)c(N3CC(=O)NS3(=O)=O)c(F)c2C1 (centres unmarked) [Compound 175, 5-[7-(butylamino)-1-fluoro-3-hydroxy-5,6,7,8-tetrahydronaphthalen-2-yl]-1λ^6,2,5-thiadiazolidine-1,1,3-trione]	< 1000 nM	10 to 100 nM	–	–	–	–	1 to 10 nM
CC(C)CCN(C)C1CCc2cc(O)c(N3CC(=O)NS3(=O)=O)c(F)c2C1 (centres unmarked) [Compound 128, 5-{1-fluoro-3-hydroxy-7-[methyl(3-methylbutyl)amino]-5,6,7,8-tetrahydronaphthalen-2-yl}-1λ^6,2,5-thiadiazolidine-1,1,3-trione]	1000 to 10000 nM	1 to 10 nM	–	–	–	–	1 to 10 nM
O=C1CN(c2c(O)cc3c(c2F)CC(NCC(F)(F)CC2CC2)CC3)S(=O)(=O)N1 (centres unmarked) [Compound 126, 5-{7-[(3-cyclopropyl-2,2-difluoropropyl)amino]-1-fluoro-3-hydroxy-5,6,7,8-tetrahydronaphthalen-2-yl}-1λ^6,2,5-thiadiazolidine-1,1,3-trione]	1000 to 10000 nM	1 to 10 nM	–	–	–	–	1 to 10 nM
O=C1CN(c2c(O)cc3c(c2F)CC(NCCCC(F)(F)F)CC3)S(=O)(=O)N1 (centres unmarked) [Compound 120, 5-{1-fluoro-3-hydroxy-7-[(4,4,4-trifluorobutyl)amino]-5,6,7,8-tetrahydronaphthalen-2-yl}-1λ^6,2,5-thiadiazolidine-1,1,3-trione]	< 1000 nM	1 to 10 nM	–	–	–	–	1 to 10 nM
CCCC1(N)CCc2cc(O)c(N3CC(=O)NS3(=O)=O)c(F)c2C1 (centres unmarked) [Compound 255, 5-(7-amino-1-fluoro-3-hydroxy-7-propyl-5,6,7,8-tetrahydronaphthalen-2-yl)-1λ^6,2,5-thiadiazolidine-1,1,3-trione]	1000 to 10000 nM	10 to 100 nM	–	–	–	–	> 100 nM

Second part, led by results:

IC50 [2]	IC50 [4]	Compound	IFNγ [pg/mL] anti-CD3/CD28 [1]	TNFα [pg/mL] anti-CD3/CD28 [1]	IFNγ [pg/mL] no stimulation [1]	TNFα [pg/mL] no stimulation [1]	IC50 [3]
1000 to 10000 nM	10 to 100 nM	CC(C)CCCC1(N)CCc2cc(O)c(N3CC(=O)NS3(=O)=O)c(F)c2C1 (centres unmarked) [Compound 254, 5-[7-amino-1-fluoro-3-hydroxy-7-(4-methylpentyl)-5,6,7,8-tetrahydronaphthalen-2-yl]-1λ^6,2,5-thiadiazolidine-1,1,3-trione]	97.0 pg/mL	91.2 pg/mL	0.7 pg/mL	1.1 pg/mL	10 to 100 nM
< 1000 nM	1 to 10 nM	C[C@@H](O)CCN[C@@H]1CCc2cc(O)c(N3CC(=O)NS3(=O)=O)c(F)c2C1 (single isomer, unassigned) [Compound 307]	66.7 pg/mL	89.5 pg/mL	1.2 pg/mL	1.1 pg/mL	1 to 10 nM
1000 to 10000 nM	10 to 100 nM	O=C1CN(c2c(O)cc3c(c2F)CC(N[C@H]2C[C@@H](OC(F)(F)F)C2)CC3)S(=O)(=O)N1 (some centres unmarked) [Compound 235, 5-(1-fluoro-3-hydroxy-7-{[(1s,3s)-3-(trifluoromethoxy)cyclobutyl]amino}-5,6,7,8-tetrahydronaphthalen-2-yl)-1λ^6,2,5-thiadiazolidine-1,1,3-trione]	–	–	–	–	10 to 100 nM
< 1000 nM	1 to 10 nM	O=C1CN(c2c(O)cc3c(c2F)CC(NCCC2CCCC2)CC3)S(=O)(=O)N1 (centres unmarked) [Compound 178, 5-{7-[(2-cyclopentylethyl)amino]-1-fluoro-3-hydroxy-5,6,7,8-tetrahydronaphthalen-2-yl}-1λ^6,2,5-thiadiazolidine-1,1,3-trione]	–	–	–	–	< 1 nM
1000 to 10000 nM	10 to 100 nM	O=C1CN(c2c(O)cc3c(c2F)CC(NCCC(O)C(F)(F)F)CC3)S(=O)(=O)N1 (centres unmarked) [Compound 151, 5-{1-fluoro-3-hydroxy-7-[(4,4,4-trifluoro-3-hydroxybutyl)amino]-5,6,7,8-tetrahydronaphthalen-2-yl}-1λ^6,2,5-thiadiazolidine-1,1,3-trione]	–	–	–	–	1 to 10 nM
< 1000 nM	10 to 100 nM	O=C1CN(c2c(O)cc3c(c2F)CC(NCC(O)C2CC2)CC3)S(=O)(=O)N1 (centres unmarked) [Compound 188, 5-{7-[(2-cyclopropyl-2-hydroxyethyl)amino]-1-fluoro-3-hydroxy-5,6,7,8-tetrahydronaphthalen-2-yl}-1λ^6,2,5-thiadiazolidine-1,1,3-trione]	–	–	–	–	10 to 100 nM
< 1000 nM	1 to 10 nM	CC(C)CCNC[C@@H]1Cc2cc(O)c(N3CC(=O)NS3(=O)=O)c(F)c2C1 (single isomer, unassigned) [Compound 291]	83.3 pg/mL	91.2 pg/mL	0.7 pg/mL	1.1 pg/mL	1 to 10 nM
